The values that follow come from patent US4749694A, “Novel lysine esters used as absorption” (Merck & Co., Inc., priority 1984, dated 1988).

Structures are written as SMILES.

Data set [1] is described as follows: Absorption of sodium cefoxitin with varying concentrations of hexadecyl lysinate in rats, percent bioavailability (Example 9). In kind it is in vivo, rat. Particulars: for bioavailability: rat, serum, 2.5 mg, pH 6, rats, hexadecyl lysinate 0 mg/body, 2.5 mg sodium cefoxitin, pH 6. The protocol:
Percent bioavailability was determined versus intravenous administration. Each animal received 2.5 mg sodium cefoxitin with varying amounts of hexadecyl lysinate.

Data set [2] can be described thus: Absorption of sodium cefoxitin with or without alcohol-lysine esters in rats, percent bioavailability versus intravenous (Example 6). As to conditions: for effect as absorption promoter at 5 mg/dose (in words): 5 mg/dose level, comparison with hexadecyl lysinate; for bioavailability: rat, serum, 2.5 mg. The method, then:
Blood samples were collected, sodium cefoxitin assayed, and "area-under-the-curve"* calculated. Percent bioavailability was determined versus intravenous administration. Each animal received 2.5 mg sodium cefoxitin ±5.0 mg alcohol-lysine ester. From 3 to 12 animals were used for each compound.

The nature of data set [3]: Absorption of cytarabine with or without hexadecyl lysinate in rats, percent bioavailability versus intravenous (Example 8). As to conditions: rat, in vivo, 2.5 mg, pH 6, rats, 2.5 mg cytarabine ± 5.0 mg hexadecyl lysinate, 250 μl, pH 6, versus intravenous. The protocol: The absorption of cytarabine, an antineoplastic and antiviral agent, was tested in rats employing aqueous formulations of cytarabine and hexadecyl lysinate. The compounds were administered in a total volume of 250 μl at pH 6. Both rectal and duodenal sites in the intestine were tested. Blood samples were collected, cytarabine assayed, and "area-under-the-curve"* calculated. Percent bioavailability was determined versus intravenous administration. Each animal received 2.5 mg cytarabine ±5.0 mg hexadecyl lysinate. Three animals were used for each experiment.

In the case of `CCCCCCCCCCCCCCCCOC(=O)[C@@H](N)CCCCN` [Hexadecyl lysinate], the “concentration dependence of absorption promoting effect (in words)” value in data set [1] (Example 9) is given as “act in a concentration dependent manner”.

In the case of `O=C(O)CN(CCN(CC(=O)O)CC(=O)O)CC(=O)O` [EDTA], the “effect as absorption promoter at 5 mg/dose (in words)” value in data set [2] was “ineffective”.

Broadly, the bioavailability is dose-corrected exposure relative to a reference, in per cent. As to `CO[C@@]1(NC(=O)Cc2cccs2)C(=O)N2C(C(=O)O)=C(COC(N)=O)CS[C@@H]21` [Cefoxitin], the bioavailability is 1% in data set [1] (duodenal, read-out: Percent Cefoxitin Bioavailability (mean ± SE), Duodenal); 2 ± 1.1% in data set [1] (rectal, read-out: Percent Cefoxitin Bioavailability (mean ± SE), Rectal); 1% in data set [2] (intestinal absorption of sodium cefoxitin, with 5 mg/dose promoter (hexadecyl lysinate) or without); 1% in data set [2] (pH 7, Percent Cefoxitin Bioavailability (mean ± SE), Duodenal, rats, 2.5 mg sodium cefoxitin ± 5.0 mg alcohol-lysine ester, 250 μl, pH 7, versus intravenous); 2 ± 1.1% in data set [2] (pH 7, Percent Cefoxitin Bioavailability (mean ± SE), Rectal, rats, 2.5 mg sodium cefoxitin ± 5.0 mg alcohol-lysine ester, 250 μl, pH 7, versus intravenous).

For the molecule `Nc1ccn([C@@H]2O[C@H](CO)[C@@H](O)[C@@H]2O)c(=O)n1` [Cytarabine], the bioavailability is 5% in data set [3] (duodenal, read-out: Percent Cytarabine Bioavailability (mean ± SE), Duodenal) and 6 ± 1.7% in data set [3] (rectal, read-out: Percent Cytarabine Bioavailability (mean ± SE), Rectal).

For the molecule `O=C(O)c1ccccc1O` [salicylate], the “effect as absorption promoter at 5 mg/dose (in words)” value in data set [2] is given as “ineffective”.
